Results taken from publication PMC11995724, “Antibiotic target discovery by integrated phenotypic and activity-based profiling of electrophilic fragments” (Cell chemical biology, 2025).
Structures can show the parent of a compound that is named as a salt.

Experiment: in vitro
Settings: human, hek293t cells

SMILES	viability at 48 h, 25 µM [%]
CC(Cl)C(=O)N1CCCC1c1nc(N(C)C)no1 (stereo not drawn) [7-F19, 2-chloro-1-{2-[3-(dimethylamino)-1,2,4-oxadiazol-5-yl]pyrrolidin-1-yl}propan-1-one]	77.6
O=C(CCl)NC1CCCc2c1cnn2Cc1ccccc1 (stereo not drawn) [7-F20, N-(1-benzyl-4,5,6,7-tetrahydro-1H-indazol-4-yl)-2-chloroacetamide]	0.873
Cc1nn(C)c(NC(=O)C(C)Cl)c1-c1ccccc1 (stereo not drawn) [7-F21, 2-chloro-N-(1,3-dimethyl-4-phenyl-1H-pyrazol-5-yl)propanamide]	84.5
O=C(CCl)NC(c1cc(F)ccc1F)C(F)F (stereo not drawn) [7-F22, 2-chloro-N-[1-(2,5-difluorophenyl)-2,2-difluoroethyl]acetamide]	0.697
CNC(=O)c1cc(OC2CCN(C(=O)C(C)Cl)C2)ccn1 (stereo not drawn) [7-G03, 4-{[1-(2-chloropropanoyl)pyrrolidin-3-yl]oxy}-N-methylpyridine-2-carboxamide]	111
Cc1noc(C2CN(C(=O)C(C)Cl)C2)n1 (stereo not drawn) [7-G04, 2-chloro-1-[3-(3-methyl-1,2,4-oxadiazol-5-yl)azetidin-1-yl]propan-1-one]	92.2
CC(Cl)C(=O)N1CC(S(=O)(=O)Nc2ccccc2)C1 (stereo not drawn) [7-G05, 1-(2-chloropropanoyl)-N-phenylazetidine-3-sulfonamide]	102
CC(Cl)C(=O)N1CCCN2c3ccccc3CC2C1 (stereo not drawn) [7-G06, 1-{1H,2H,3H,4H,5H,11H,11aH-[1,4]diazepino[1,2-a]indol-2-yl}-2-chloropropan-1-one]	96.3
CCOc1cccc(N2CCN(C(=O)C(C)Cl)CC2)n1 (stereo not drawn) [7-G07, 2-chloro-1-[4-(6-ethoxypyridin-2-yl)piperazin-1-yl]propan-1-one]	83.5
CCn1cc(C2CN(C(=O)C(C)Cl)CCO2)cn1 (stereo not drawn) [7-G08, 2-chloro-1-[2-(1-ethyl-1H-pyrazol-4-yl)morpholin-4-yl]propan-1-one]	89.1
CC(Cl)C(=O)NC(C)c1ccc(C(F)(F)F)nc1Cl (stereo not drawn) [7-G09, 2-chloro-N-{1-[2-chloro-6-(trifluoromethyl)pyridin-3-yl]ethyl}propanamide]	83.5
CC(Cl)C(=O)N1CCN(c2nccc3sccc23)CC1 (stereo not drawn) [7-G10, 2-chloro-1-(4-{thieno[3,2-c]pyridin-4-yl}piperazin-1-yl)propan-1-one]	83.5
CC(Cl)C(=O)N(Cc1ccsc1)C1CC1 (stereo not drawn) [7-G11, 2-chloro-N-cyclopropyl-N-[(thiophen-3-yl)methyl]propanamide]	86.9
CC1CCCN(C(=O)C(NC(=O)C(C)Cl)c2cnn(C)c2)C1 (stereo not drawn) [7-G12, 2-chloro-N-[1-(1-methyl-1H-pyrazol-4-yl)-2-(3-methylpiperidin-1-yl)-2-oxoethyl]propanamide]	81.1
CC(Cl)C(=O)NC1CCCc2c1cnn2Cc1ccccc1 (stereo not drawn) [7-G13, N-(1-benzyl-4,5,6,7-tetrahydro-1H-indazol-4-yl)-2-chloropropanamide]	87.2
CC(Cl)C(=O)N(c1ccccc1)C1CCOC1 (stereo not drawn) [7-G14, 2-chloro-N-(oxolan-3-yl)-N-phenylpropanamide]	64.4
CC(Cl)C(=O)NCC(c1ccccc1)c1nnc[nH]1 (stereo not drawn) [7-G15, 2-chloro-N-[2-phenyl-2-(4H-1,2,4-triazol-3-yl)ethyl]propanamide]	114
CC(Cl)C(=O)NCC(NS(=O)(=O)N(C)C)C1CCCC1 (stereo not drawn) [7-G16, 2-chloro-N-{2-cyclopentyl-2-[(dimethylsulfamoyl)amino]ethyl}propanamide]	91.3
CC(Cl)C(=O)NCCc1nnnn1-c1ccccc1 (stereo not drawn) [7-G17, 2-chloro-N-[2-(1-phenyl-1H-1,2,3,4-tetrazol-5-yl)ethyl]propanamide]	92.2
CC(Cl)C(=O)N1C2CCC1CC(O)(Cc1ccc(F)cc1F)C2 (stereo not drawn) [7-G18, 2-chloro-1-{3-[(2,4-difluorophenyl)methyl]-3-hydroxy-8-azabicyclo[3.2.1]octan-8-yl}propan-1-one]	60
CC(Cl)C(=O)NCc1ccc(C(=O)Nc2ccc(F)cc2)cc1 (stereo not drawn) [7-G19, 4-[(2-chloropropanamido)methyl]-N-(4-fluorophenyl)benzamide]	76.3
Cc1ccccc1N(CC(=O)N1CCCCC1)C(=O)C(C)Cl (stereo not drawn) [7-G20, 2-chloro-N-(2-methylphenyl)-N-[2-oxo-2-(piperidin-1-yl)ethyl]propanamide]	70.7
CC(Cl)C(=O)NCCn1cccc1 (stereo not drawn) [7-G21, 2-chloro-N-[2-(1H-pyrrol-1-yl)ethyl]propanamide]	87.8
CC(Cl)C(=O)N1CCc2c(nnn2C)C1 (stereo not drawn) [7-G22, 2-chloro-1-{1-methyl-1H,4H,5H,6H,7H-[1,2,3]triazolo[4,5-c]pyridin-5-yl}propan-1-one]	80.5
O=C(CCl)NCC1CN(Cc2ccccc2)CC12CCC2 (stereo not drawn) [7-H03, N-({6-benzyl-6-azaspiro[3.4]octan-8-yl}methyl)-2-chloroacetamide hydrochloride]	0.629
O=C(CCl)NC1CCN(Cc2cscn2)CC1 [7-H04, 2-chloro-N-{1-[(1,3-thiazol-4-yl)methyl]piperidin-4-yl}acetamide hydrochloride]	0.789

SMILES	viability at 48 h, 25 µM [%]
CC(Cl)C(=O)NC1CCc2cnn(C(C)C)c2C1 (stereo not drawn) [7-H05, 2-chloro-N-[1-(propan-2-yl)-4,5,6,7-tetrahydro-1H-indazol-6-yl]propanamide]	107
O=C(CCl)NC1CCS(=O)(=O)c2ccc(F)cc21 (stereo not drawn) [7-H06, 2-chloro-N-(6-fluoro-1,1-dioxo-3,4-dihydro-2H-1lambda6-benzothiopyran-4-yl)acetamide]	1.04
COc1cc(CC2CN(C(=O)C(C)Cl)C2)cc(OC)c1 (stereo not drawn) [7-H07, 2-chloro-1-{3-[(3,5-dimethoxyphenyl)methyl]azetidin-1-yl}propan-1-one]	97.3
O=C(CCl)NCc1ccnn1C1CCCC1 [7-H08, 2-chloro-N-[(1-cyclopentyl-1H-pyrazol-5-yl)methyl]acetamide]	0.996
Cc1c(C(=O)N2CCN(C(=O)C(C)Cl)CC2)sc2ccccc12 (stereo not drawn) [7-H09, 2-chloro-1-[4-(3-methyl-1-benzothiophene-2-carbonyl)piperazin-1-yl]propan-1-one]	88.8
O=C(CCl)NCc1ccn(Cc2ccccc2)n1 [7-H10, N-[(1-benzyl-1H-pyrazol-3-yl)methyl]-2-chloroacetamide]	0.654
CC(Cl)C(=O)N1CCCC1c1nc(-c2ccccc2)c(C(C)C)o1 (stereo not drawn) [7-H11, 2-chloro-1-{2-[4-phenyl-5-(propan-2-yl)-1,3-oxazol-2-yl]pyrrolidin-1-yl}propan-1-one]	79.2
CC(c1ccc(S(N)(=O)=O)cc1)N(C)C(=O)CCl (stereo not drawn) [7-H12, 2-chloro-N-methyl-N-[1-(4-sulfamoylphenyl)ethyl]acetamide]	0.618
CC(Cl)C(=O)NC(CC1CCCCC1)c1ncccn1 (stereo not drawn) [7-H13, 2-chloro-N-[2-cyclohexyl-1-(pyrimidin-2-yl)ethyl]propanamide]	91.2
Cc1ccc(N2CCCC2CNC(=O)CCl)cc1 (stereo not drawn) [7-H14, 2-chloro-N-{[1-(4-methylphenyl)pyrrolidin-2-yl]methyl}acetamide]	4.76
CC(Cl)C(=O)N(C)CCn1c(=O)oc2ccccc21 (stereo not drawn) [7-H15, 2-chloro-N-methyl-N-[2-(2-oxo-2,3-dihydro-1,3-benzoxazol-3-yl)ethyl]propanamide]	102
O=C(CCl)NCCc1c[nH]c2c(F)c(F)c(F)cc12 [7-H16, 2-chloro-N-[2-(5,6,7-trifluoro-1H-indol-3-yl)ethyl]acetamide]	1.21
CC(Cl)C(=O)N1CCC(n2nnc3c2CCCC3)CC1 (stereo not drawn) [7-H17, 2-chloro-1-[4-(4,5,6,7-tetrahydro-1H-1,2,3-benzotriazol-1-yl)piperidin-1-yl]propan-1-one]	90
COc1cc(CN(C(=O)CCl)C2CC2)ccc1O [7-H18, 2-chloro-N-cyclopropyl-N-[(4-hydroxy-3-methoxyphenyl)methyl]acetamide]	0.647
CC(Cl)C(=O)NCCC1(CO)CC1 (stereo not drawn) [7-H19, 2-chloro-N-{2-[1-(hydroxymethyl)cyclopropyl]ethyl}propanamide]	90.1
CCN(Cc1ccc(C(F)(F)F)cc1)C(=O)CCl [7-H20, 2-chloro-N-ethyl-N-{[4-(trifluoromethyl)phenyl]methyl}acetamide]	0.708
Cc1cc(CC(C)NC(=O)C(C)Cl)n(-c2ccccc2)n1 (stereo not drawn) [7-H21, 2-chloro-N-[1-(3-methyl-1-phenyl-1H-pyrazol-5-yl)propan-2-yl]propanamide]	80.1
COc1cc(C(C)NC(=O)CCl)sn1 (stereo not drawn) [7-H22, 2-chloro-N-[1-(3-methoxy-1,2-thiazol-5-yl)ethyl]acetamide]	0.822
CC(Cl)C(=O)N1CC(OCc2cccc3ccccc23)C1 (stereo not drawn) [7-I03, 2-chloro-1-{3-[(naphthalen-1-yl)methoxy]azetidin-1-yl}propan-1-one]	96.3
CC(Cl)C(=O)N1CC(Cc2cccs2)C1 (stereo not drawn) [7-I04, 2-chloro-1-{3-[(thiophen-2-yl)methyl]azetidin-1-yl}propan-1-one]	88.8
CC(Cl)C(=O)NCC1=CCCOC1 (stereo not drawn) [7-I05, 2-chloro-N-[(5,6-dihydro-2H-pyran-3-yl)methyl]propanamide]	89.9
COCc1noc(CN2CCN(C(=O)C(C)Cl)CC2)n1 (stereo not drawn) [7-I06, 2-chloro-1-(4-{[3-(methoxymethyl)-1,2,4-oxadiazol-5-yl]methyl}piperazin-1-yl)propan-1-one]	88.7
CCOC(=O)c1c2c(nn1C)CCN(C(=O)C(C)Cl)C2 (stereo not drawn) [7-I07, ethyl 5-(2-chloropropanoyl)-2-methyl-2H,4H,5H,6H,7H-pyrazolo[4,3-c]pyridine-3-carboxylate]	92.6
CC(Cl)C(=O)N1CCN(C)C(c2nc(C3CC3)no2)C1 (stereo not drawn) [7-I08, 2-chloro-1-[3-(3-cyclopropyl-1,2,4-oxadiazol-5-yl)-4-methylpiperazin-1-yl]propan-1-one]	84.4
CC(Cl)C(=O)N1CCCC1c1nc(-c2ccccc2)n[nH]1 (stereo not drawn) [7-I09, 2-chloro-1-[2-(3-phenyl-1H-1,2,4-triazol-5-yl)pyrrolidin-1-yl]propan-1-one]	86.8
